What was measured:
Experiment in all cases: relative viability (nuclei count vs DMSO), 5 days (fraction); higher = more cells survive
[1] = compound: CC1=C(C(=O)N2C=CSC2=N1)CCN3CCC(=C(C4=CC=CC=C4)C5=CC=C(C=C5)F)CC3 + C[C@]1(O)C[C@@H](c2nc(-c3ccc4ccc(-c5ccccc5)nc4c3)c3c(N)nccn32)C1 [Linsitinib] (partner 1 µM)
Summary of the method: (§1)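 Medians of duplicate plates are given as relative viability. That measure is the nuclei count in treated wells divided by the count in vehicle wells. Counts were taken on 4× images of lung cancer cell lines in 1536-well plates, 5 days after pin-tool dosing the day after seeding with one drug alone or a fixed anchor-drug dose plus five library-drug doses (not always all listed) in √10 steps.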

[2] = compound: CC1=C(C(=O)N2C=CSC2=N1)CCN3CCC(=C(C4=CC=CC=C4)C5=CC=C(C=C5)F)CC3 + CCNC(=O)c1noc(-c2cc(C(C)C)c(O)cc2O)c1-c1ccc(CN2CCOCC2)cc1 [Luminespib] (partner 0.01 µM)
Summary of the method: as §1

[3] = compound: CC1=C(C(=O)N2C=CSC2=N1)CCN3CCC(=C(C4=CC=CC=C4)C5=CC=C(C=C5)F)CC3 + COc1cccc2cc(-c3nc([C@H]4CC[C@H](C(=O)O)CC4)n4ncnc(N)c34)[nH]c12 [OSI-027] (partner 0.5 µM)
Summary of the method: as §1

[4] = compound: CC1=C(C(=O)N2C=CSC2=N1)CCN3CCC(=C(C4=CC=CC=C4)C5=CC=C(C=C5)F)CC3 + CS(=O)(=O)CCNCc1ccc(-c2ccc3ncnc(Nc4ccc(OCc5cccc(F)c5)c(Cl)c4)c3c2)o1 [Lapatinib] (partner 2 µM)
Summary of the method: as §1

Row | Cell Line | relative viability ([1]; first compound 0.08 µM) | relative viability ([1]; first compound 0.253 µM) | relative viability ([1]; first compound 0.8 µM) | relative viability ([1]; first compound 2.53 µM) | relative viability ([1]; first compound 8 µM) | relative viability ([2]; first compound 0.08 µM) | relative viability ([2]; first compound 0.253 µM) | relative viability ([2]; first compound 0.8 µM) | relative viability ([2]; first compound 2.53 µM) | relative viability ([2]; first compound 8 µM) | relative viability ([3]; first compound 0.08 µM) | relative viability ([3]; first compound 0.253 µM) | relative viability ([3]; first compound 0.8 µM) | relative viability ([3]; first compound 2.53 µM) | relative viability ([3]; first compound 8 µM) | relative viability ([4]; first compound 0.08 µM) | relative viability ([4]; first compound 0.253 µM) | relative viability ([4]; first compound 0.8 µM) | relative viability ([4]; first compound 2.53 µM) | relative viability ([4]; first compound 8 µM)
1 | NCI-H322M | 0.808 | 0.924 | 0.926 | 1.01 | 0.702 | 0.768 | 0.899 | 0.928 | 0.888 | 0.81 | 0.522 | 0.509 | 0.547 | 0.596 | 0.442 | 0.581 | 0.613 | 0.612 | 0.554 | 0.611
2 | NCI-H1734 | 0.766 | 0.825 | 0.948 | 1.1 | 0.429 | 0.202 | 0.174 | 0.205 | 0.166 | 0.183 | 0.549 | 0.571 | 0.564 | 0.576 | 0.416 | 1.08 | 0.866 | 0.984 | 1.33 | 0.71
3 | HOP-62 | 1.24 | 0.948 | 1 | 1.06 | 0.49 | 0.926 | 0.909 | 0.923 | 0.92 | 0.461 | 0.92 | 0.771 | 0.837 | 0.824 | 0.488 | 0.785 | 1.03 | 1.2 | 0.862 | 0.482
4 | NCI-H358 | 0.819 | 0.74 | 0.779 | 0.874 | 0.561 |  | 0.339 | 0.384 | 0.307 | 0.261 | 0.681 | 0.666 | 0.666 | 1.13 | 0.469 | 0.442 | 0.535 | 0.427 | 0.44 | 0.404
5 | SK-MES-1 | 1.1 | 1.2 | 1.08 | 1.03 | 0.789 | 0.947 | 0.832 | 0.689 | 0.931 | 0.594 | 0.405 | 0.524 | 0.587 | 0.554 | 0.706 | 0.453 | 0.537 | 0.478 | 0.437 | 0.481
6 | NCI-H1915 | 1.16 | 1.12 | 1.07 | 1.18 | 0.832 | 1.01 | 0.655 | 0.797 | 0.656 | 0.499 | 0.758 | 0.599 | 0.589 | 0.642 | 0.464 | 1.22 | 1.07 | 0.959 | 1.12 | 0.691
7 | NCI-H1666 | 0.86 | 0.734 | 0.768 | 0.886 | 0.621 | 1.07 | 1.06 | 1.01 | 0.984 | 0.848 | 0.872 | 0.913 | 0.731 | 0.8 | 0.606 | 0.565 | 0.704 | 0.584 | 0.621 | 0.486
8 | LC-2-ad | 0.828 | 0.927 | 0.885 | 0.893 | 0.663 | 1.27 | 1.36 | 1.12 | 1.19 | 0.918 | 0.876 | 0.994 | 0.87 | 0.913 | 0.663 | 1.01 | 1.08 | 0.88 | 1.2 | 0.861
9 | HCC-44 | 0.689 | 0.818 | 0.662 | 0.686 | 0.579 | 1.37 | 1.51 |  | 1.3 | 0.736 | 0.69 | 0.548 |  | 0.494 | 0.491 | 1.07 | 0.83 | 1 | 1.07 | 0.787
10 | HCC-827 | 0.961 | 0.969 | 0.927 | 0.996 | 0.926 | 0.742 | 0.606 | 0.552 | 0.781 | 0.342 | 0.761 | 0.776 | 0.842 | 0.833 | 0.62 | 0.198 | 0.189 | 0.201 | 0.196 | 0.188
11 | NCI-H727 | 0.194 | 0.227 | 0.298 | 0.437 | 0.295 | 0.284 | 0.668 | 0.346 | 0.331 | 0.38 | 0.52 | 0.51 | 0.527 | 0.638 | 0.45 | 0.778 | 0.674 | 0.757 | 0.984 | 0.553
12 | NCI-H596 | 0.935 | 1.1 | 1.2 | 1.03 | 0.755 | 1.05 | 0.978 | 1.23 | 1.08 | 0.655 | 0.668 | 0.788 | 0.746 | 0.827 | 0.41 | 1.05 | 1.17 | 1.06 | 0.989 | 1.06
13 | NCI-H2087 | 1.06 | 0.9 | 0.852 | 1.12 | 0.745 | 0.132 | 0.208 | 0.22 | 0.185 | 0.142 | 0.364 | 0.587 | 0.696 | 0.566 | 0.237 | 1.13 | 0.88 | 1.07 | 1.23 | 0.843
14 | NCI-H650 |  | 0.81 | 0.779 | 0.878 | 0.608 | 0.573 | 0.827 | 0.951 | 0.877 | 0.683 | 0.513 | 0.489 | 0.551 | 0.504 | 0.531 |  | 0.883 | 0.838 | 1.03 | 0.646
15 | ABC-1 | 0.655 | 0.894 | 0.723 | 1.02 | 0.504 | 0.743 | 0.607 | 0.429 | 0.329 | 0.564 | 0.547 | 0.394 | 0.434 | 0.372 | 0.266 | 1.11 | 1.18 | 1.14 | 1.3 | 0.674
16 | A-427 | 1.06 | 1.05 | 1.13 | 1.17 | 0.959 | 0.91 | 0.919 | 0.923 | 1.15 | 0.88 | 0.421 | 0.364 | 0.421 | 0.49 | 0.432 | 1.12 | 0.962 | 0.994 | 1.15 | 1.08
17 | SK-LU-1 | 1.17 | 0.93 | 1.15 | 1.38 | 0.814 | 0.228 | 0.217 | 0.192 | 0.21 | 0.184 | 0.396 | 0.341 | 0.38 | 0.318 | 0.294 | 0.675 | 0.918 | 1.05 | 1.07 | 0.62
18 | NCI-H1792 | 0.446 | 0.353 | 0.606 | 0.379 | 0.575 | 0.354 | 0.444 | 0.585 | 0.379 | 0.349 | 0.596 | 0.643 | 0.789 | 0.566 | 0.485 | 1.02 | 0.401 | 0.931 | 0.921 | 0.489
19 | NCI-H2023 | 0.63 | 0.598 | 0.718 | 0.723 | 0.582 | 1.37 | 0.783 | 0.864 | 0.946 | 0.518 | 0.4 | 0.404 | 0.386 | 0.39 | 0.301 | 0.876 | 0.796 | 0.783 | 0.966 | 0.9
20 | NCI-H23 | 0.525 | 0.762 | 0.616 | 0.676 | 0.339 | 0.205 | 0.207 | 0.22 | 0.23 | 0.241 | 0.572 | 0.517 | 0.482 | 0.738 | 0.399 | 0.932 | 0.829 | 1.04 | 1.35 | 0.621
21 | COR-L23 | 0.84 | 0.915 | 1.04 | 1.13 | 0.505 | 0.61 | 0.831 | 0.785 | 0.671 | 0.504 | 0.778 | 0.667 | 0.702 | 0.778 | 0.619 | 1.13 | 1.1 | 1.12 | 0.921 | 0.638
22 | NCI-H1993 | 0.763 |  | 0.67 | 0.713 | 0.89 | 0.79 | 0.841 | 0.916 | 0.897 | 0.768 | 0.611 | 0.498 | 0.546 | 0.58 | 0.626 | 0.801 |  | 0.886 | 0.706 | 0.808
23 | NCI-H661 | 0.581 | 0.607 | 0.675 | 0.483 | 0.553 | 1.03 | 0.984 | 0.928 | 1.04 | 0.598 | 0.618 | 0.659 | 0.691 | 0.712 | 0.627 | 0.428 | 0.469 | 0.538 | 0.39 | 0.355
24 | COR-L 105 | 0.892 | 0.832 | 1.05 | 0.96 | 0.597 | 0.673 | 0.817 | 0.798 | 0.809 | 0.659 | 0.682 | 0.726 | 0.695 | 0.835 | 0.644 | 0.33 | 0.443 | 0.336 | 0.379 | 0.401
25 | NCI-H2405 | 0.999 | 1.14 | 1.1 | 0.862 | 0.744 | 0.746 | 0.744 | 0.753 | 0.649 | 0.564 | 0.664 | 0.614 | 0.677 | 0.624 | 0.606 | 1.29 | 1.06 | 1.05 | 1.17 | 0.955

— the supplement of paper PMC10307832
